Data on 9 molecules can be found in ChEMBL document CHEMBL1201862, “PubChem BioAssay data set” (2004).

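Each compound was tested at five concentrations against cells in 96-well plates for 48 hours. The concentration for 50% growth inhibition is given as GI50.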 Activity calls are given as the source filed them. No stated cut-off is given here; in the data, active = GI50 up to about 1.1 µM and inactive = higher.

Test systems include SNB-19; SF-295; HT-29; OVCAR-3; OVCAR-4; SF-539; COLO 205; NCI-H23; HCC 2998; SK-OV-3; SK-MEL-5; OVCAR-8; UACC-257; A549; NCI-H460; KM12; U-251; MOLT-4; EKVX; SN12C.
What all share (assay): NCI-60 cell line screen, 48 h

With `Nc1ncc2c(n1)-c1ccccc1OC2`, the GI50 in the experiment on SNB-19 was > 100 µM (inactive); with SF-295, > 100 µM (inactive); with HT-29, > 100 µM (inactive); with OVCAR-3, > 100 µM (inactive); with OVCAR-4 it was > 31.6 µM (inactive); in the experiment with SF-539 it was > 100 µM (inactive). The GI50 in the experiment on COLO 205, in the experiment on NCI-H23, in the experiment with HCC 2998, in the experiment with SK-OV-3, in the experiment with SK-MEL-5 and with OVCAR-8 was > 100 µM (inactive) throughout. The GI50 in the experiment on UACC-257, in the experiment with A549, in the experiment with NCI-H460, in the experiment on KM12, in the experiment with U-251 and in the experiment on MOLT-4 was > 100 µM (inactive) throughout. For the same molecule, the GI50 in the experiment with EKVX was 94.4 µM (inactive); with SN12C, > 100 µM (inactive).

As to `Cc1c2c(cc3c1[nH]c1ccccc13)C(c1ccc(F)cc1)=NCC2`, the GI50 with SNB-19 was 1.41 µM (inactive); in the experiment on SF-295 it was 0.869 µM (active); with HT-29, 1.17 µM (inactive); with OVCAR-3 it was 0.993 µM (active); in the experiment on OVCAR-4 it was 0.703 µM (active); in the experiment on SF-539, 1.13 µM (inactive). In addition, the GI50 in the experiment with COLO 205 was 0.679 µM (active); with NCI-H23 it was 1.15 µM (inactive); with HCC 2998, 1.04 µM (active); in the experiment with SK-OV-3, 1.37 µM (inactive); with SK-MEL-5, 1.72 µM (inactive); in the experiment on OVCAR-8 it was 1.81 µM (inactive). The GI50 with UACC-257 was 1.03 µM (active); in the experiment with A549 it was 1.48 µM (inactive); in the experiment with NCI-H460 it was 0.815 µM (active); with KM12, 0.869 µM (active); with U-251, 1.43 µM (inactive); in the experiment with MOLT-4 it was 1 µM (active). For the same molecule, the GI50 is 2.07 µM (inactive) in the experiment with EKVX and 1.63 µM (inactive) in the experiment with SN12C.

Regarding `CC1=CC2c3cccc4[nH]cc(c34)CC2N(C)C1` (stereo not given), the GI50 in the experiment on SNB-19 is > 100 µM (inactive); in the experiment on SF-295, 53.3 µM (inactive); in the experiment with HT-29 it was 49.4 µM (inactive); in the experiment on OVCAR-3, > 100 µM (inactive); with OVCAR-4, > 100 µM (inactive); with SF-539 it was > 100 µM (inactive). Further, the GI50 is 55.6 µM (inactive) with COLO 205; > 100 µM (inactive) with NCI-H23; 25.5 µM (inactive) with HCC 2998; > 100 µM (inactive) in the experiment with SK-OV-3; > 76.9 µM (inactive) in the experiment on SK-MEL-5; > 100 µM (inactive) in the experiment on OVCAR-8. Moreover, the GI50 was 22.4 µM (inactive) in the experiment with UACC-257; > 100 µM (inactive) in the experiment on A549; 56.5 µM (inactive) with NCI-H460; > 100 µM (inactive) in the experiment with KM12; > 100 µM (inactive) in the experiment with U-251; > 68.1 µM (inactive) with MOLT-4. Besides, the GI50 with EKVX is > 100 µM (inactive); in the experiment on SN12C it was > 89.5 µM (inactive).

Take `CN(C)CCNC(=O)c1cccc2c1C(=O)c1ccccc1C2=O`: the GI50 was 28 µM (inactive) in the experiment with SNB-19; 33.7 µM (inactive) in the experiment on SF-295; 26.2 µM (inactive) in the experiment on HT-29; 19.3 µM (inactive) in the experiment on OVCAR-3; 28.2 µM (inactive) in the experiment on OVCAR-4; 40.6 µM (inactive) in the experiment with SF-539. The GI50 is 16 µM (inactive) in the experiment with COLO 205; 22 µM (inactive) in the experiment with NCI-H23; 39.1 µM (inactive) in the experiment on HCC 2998; 58.9 µM (inactive) in the experiment with SK-OV-3; 20.5 µM (inactive) with SK-MEL-5; 29.4 µM (inactive) in the experiment with OVCAR-8. Moreover, the GI50 in the experiment with UACC-257 was 19.5 µM (inactive); in the experiment on A549, 37.2 µM (inactive); in the experiment with NCI-H460 it was 29.6 µM (inactive); in the experiment with KM12, > 58.1 µM (inactive); in the experiment on U-251, 31.7 µM (inactive); in the experiment with MOLT-4 it was 20.5 µM (inactive). Besides, the GI50 is 63.8 µM (inactive) in the experiment on EKVX and 33.7 µM (inactive) with SN12C.

`O=C(O)CCSC(=S)Nc1cccc(F)c1`: the GI50 was 45.2 µM (inactive) with SNB-19; 28.7 µM (inactive) with SF-295; 80 µM (inactive) in the experiment with HT-29; 33.7 µM (inactive) with OVCAR-3; 92.3 µM (inactive) with OVCAR-4; 26.1 µM (inactive) with SF-539. For the same molecule, the GI50 was 57.5 µM (inactive) in the experiment on COLO 205; 36.1 µM (inactive) with NCI-H23; > 100 µM (inactive) in the experiment on HCC 2998; > 100 µM (inactive) in the experiment on SK-OV-3; 20 µM (inactive) in the experiment on SK-MEL-5; 37.8 µM (inactive) with OVCAR-8. Further, the GI50 with UACC-257 is 22.3 µM (inactive); with A549, 77.4 µM (inactive); in the experiment on NCI-H460, 83.9 µM (inactive); with KM12 it was 42.1 µM (inactive); in the experiment on U-251, 47.3 µM (inactive); with MOLT-4, 30 µM (inactive). In addition, the GI50 in the experiment on EKVX is 18.6 µM (inactive); in the experiment on SN12C, 60.8 µM (inactive).

On to `O=C(O)C1CCCCN1C(=O)c1ccccc1` (stereo not given), for which the GI50 in the experiment with SNB-19, in the experiment with SF-295, in the experiment with HT-29, with OVCAR-3, in the experiment on OVCAR-4 and with SF-539 was > 100 µM (inactive) in each case. The GI50 in the experiment with COLO 205, in the experiment with NCI-H23, in the experiment with HCC 2998, in the experiment on SK-OV-3, in the experiment on SK-MEL-5 and in the experiment on OVCAR-8 was > 100 µM (inactive) each time. In addition, the GI50 with UACC-257, in the experiment with A549, with NCI-H460, in the experiment on KM12, in the experiment with U-251 and in the experiment with MOLT-4 was > 100 µM (inactive) throughout. Also, the GI50 in the experiment on EKVX and in the experiment with SN12C was > 100 µM (inactive) in each case.

Take `C/N=C1\S/C(=N\c2ccc(N(C)C)cc2)N1C`: the GI50 was 42.2 µM (inactive) in the experiment on SNB-19; 40.4 µM (inactive) in the experiment on SF-295; 28.2 µM (inactive) in the experiment on HT-29; 39.4 µM (inactive) in the experiment on OVCAR-3; 44.1 µM (inactive) in the experiment on OVCAR-4; 32.1 µM (inactive) in the experiment with SF-539. Also, the GI50 in the experiment with COLO 205 is 39.4 µM (inactive); in the experiment with NCI-H23, 32.1 µM (inactive); in the experiment with HCC 2998, 33.2 µM (inactive); with SK-OV-3, 26.8 µM (inactive); with SK-MEL-5, 25.2 µM (inactive); in the experiment on OVCAR-8, 35.1 µM (inactive). The GI50 is 47.8 µM (inactive) with UACC-257; 43 µM (inactive) with A549; 36.3 µM (inactive) in the experiment on NCI-H460; 57.1 µM (inactive) in the experiment with KM12; 33.9 µM (inactive) in the experiment on U-251; 43 µM (inactive) in the experiment with MOLT-4. The GI50 in the experiment with EKVX is 25 µM (inactive); with SN12C, 31 µM (inactive).

Turning to `C[n+]1c2ccccc2c(C(=O)NC(CCCNC(=N)N)C(=O)O)c2ccccc21` (stereo not given), the GI50 in the experiment with SNB-19, in the experiment with SF-295, in the experiment on HT-29, with OVCAR-3, with OVCAR-4 and in the experiment on SF-539 was > 100 µM (inactive) in each case. Besides, the GI50 in the experiment on COLO 205, with NCI-H23, with HCC 2998, in the experiment with SK-OV-3, with SK-MEL-5 and in the experiment on OVCAR-8 was > 100 µM (inactive) in each case. The GI50 in the experiment on UACC-257, in the experiment on A549, with NCI-H460, in the experiment with KM12, in the experiment on U-251 and in the experiment with MOLT-4 was > 100 µM (inactive) each time. For the same molecule, the GI50 with EKVX and in the experiment on SN12C was > 100 µM (inactive) throughout.

For `Cc1ccccc1OCC(COC(=O)Nc1ccccc1)OC(=O)Nc1ccccc1` (stereo not given), the GI50 was 22.1 µM (inactive) with SNB-19; 51.3 µM (inactive) in the experiment on SF-295; 31.6 µM (inactive) in the experiment on HT-29; 87.7 µM (inactive) in the experiment with OVCAR-3; 13.1 µM (inactive) with OVCAR-4; 4.15 µM (inactive) in the experiment with SF-539. For the same molecule, the GI50 with COLO 205 was 72.3 µM (inactive); in the experiment with NCI-H23, 54 µM (inactive); in the experiment with HCC 2998, 83.8 µM (inactive); in the experiment with SK-OV-3, 59.7 µM (inactive); in the experiment with SK-MEL-5, > 100 µM (inactive); in the experiment on OVCAR-8 it was 26.5 µM (inactive). The GI50 was > 100 µM (inactive) in the experiment with UACC-257; 32.7 µM (inactive) with A549; 20.2 µM (inactive) in the experiment with NCI-H460; 26.3 µM (inactive) in the experiment with KM12; 38 µM (inactive) with U-251; 3.49 µM (inactive) in the experiment on MOLT-4. The GI50 was > 100 µM (inactive) in the experiment on EKVX and 26.8 µM (inactive) with SN12C.
